According to patent US20090143279A1 (priority 2007, published 2009):
Read-outs that look alike come from different tables or passages of the source.

What was measured:
mtOXPHOS transcripts = assay type: cell-based, mouse; details: for mitoOX (composite Z-score): normalized score vs mock-treated (DMSO) wells
[1] = tested on: cellular dehydrogenase activity; details: for MTT (composite Z-score): normalized score vs mock-treated (DMSO) wells
nuOXPHOS transcripts = assay type: cell-based, mouse; details: for nucOX (composite Z-score): normalized score vs mock-treated (DMSO) wells
cytochrome c = assay type: cell-based, mouse; details: for cyt c (composite Z-score): normalized score vs mock-treated (DMSO) wells
OXPHOS gene expression = assay type: cell-based, mouse; details: for GE-HTS (composite Z-score): normalized score vs mock-treated (DMSO) wells
reactive oxygen species = assay type: cell-based, mouse; details: for ROS (composite Z-score): normalized score vs mock-treated (DMSO) wells
[2] = tested on: mitochondrial membrane potential; assay type: cell-based, mouse; details: for ΔΨm (composite Z-score): normalized score vs mock-treated (DMSO) wells
C2C12 myotubes = details: for Viability (composite Z-score): normalized score vs mock-treated (DMSO) wells
[3] = composite Z-score vs mock-treated (DMSO) wells, concentration of each compound in μM
[4] = composite Z-score vs DMSO wells, Conc 20 μM
[5] = composite Z-score vs mock-treated (DMSO) wells, Conc 20 μM
[6] = 20 μM, composite Z-score vs DMSO
[7] = 24.06 μM, composite Z-score vs DMSO

CC(=O)Oc1ccccc1C(=O)Oc1ccccc1C(=O)O [diplosalsalate]
mitoOX (composite Z-score) (mtOXPHOS transcripts; Conc 20 μM): −0.766 | MTT (composite Z-score) ([1]; Conc 20 μM): −0.860 | nucOX (composite Z-score) (nuOXPHOS transcripts; Conc 20 μM): −0.994 | cyt c (composite Z-score) (cytochrome c; Conc 20 μM): 0.787 | GE-HTS (composite Z-score) (OXPHOS gene expression; Conc 20 μM): −1.001 | ROS (composite Z-score) (reactive oxygen species; Conc 20 μM): 0.306 | ΔΨm (composite Z-score) ([2]; Conc 20 μM): 0.008 | Viability (composite Z-score) (C2C12 myotubes; Conc 20 μM): −0.204

CC[C@H](C)[C@H](N)C(=O)N1CCC[C@H]1C(=O)N[C@H](C(=O)O)[C@@H](C)CC [diprotin A]
mitoOX (mtOXPHOS transcripts; [3]): 0.490 | MTT [1, 3]: −1.068 | nucOX (nuOXPHOS transcripts; [3]): −0.102 | cyt c (cytochrome c; [3]): −0.975 | GE-HTS (OXPHOS gene expression; [3]): 0.099 | ROS (reactive oxygen species; [3]): 0.300 | ΔΨm [2, 3]: 0.357 | Viability (C2C12 myotubes; [3]): −0.788

CC(=O)Oc1cccc(C(=O)O)c1OC(C)=O [dipyrocetyl]
mitoOX (composite Z-score) (mtOXPHOS transcripts; Conc 20 μM): −0.341 | MTT (composite Z-score) ([1]; Conc 20 μM): −1.355 | nucOX (composite Z-score) (nuOXPHOS transcripts; Conc 20 μM): −0.242 | cyt c (composite Z-score) (cytochrome c; Conc 20 μM): 0.865 | GE-HTS (composite Z-score) (OXPHOS gene expression; Conc 20 μM): −0.311 | ROS (composite Z-score) (reactive oxygen species; Conc 20 μM): 1.260 | ΔΨm (composite Z-score) ([2]; Conc 20 μM): −0.363 | Viability (composite Z-score) (C2C12 myotubes; Conc 20 μM): 0.452

Cc1c(N(C)CS(=O)(=O)[O-])c(=O)n(-c2ccccc2)n1C.[Na+] [dipyrone]
mitoOX (mtOXPHOS transcripts; [4]): −0.820 | MTT [1]: −1.243 | MTT [1, 4]: −1.908 | nucOX (nuOXPHOS transcripts; [4]): −0.930 | cyt c (cytochrome c): 0.356 | cyt c (cytochrome c; [4]): 0.337 | GE-HTS (OXPHOS gene expression; [4]): −0.955 | ROS (reactive oxygen species): −0.683 | ROS (reactive oxygen species; [4]): −1.148 | ΔΨm [2]: −0.738 | ΔΨm [2, 4]: −0.760 | Viability (C2C12 myotubes): −0.607 | Viability (C2C12 myotubes; [4]): −0.809

NCCc1ccc(O)c(O)c1 [dopamine]
mitoOX (mtOXPHOS transcripts): −0.655 | MTT [1]: −0.754 | nucOX (nuOXPHOS transcripts): −0.112 | cyt c (cytochrome c): 0.007 | GE-HTS (OXPHOS gene expression): −0.337 | ROS (reactive oxygen species): −0.046 | ΔΨm [2]: −0.849 | Viability (C2C12 myotubes): −0.964

COc1ccc2c(c1OC)OC[C@@H](c1ccc(OC)c(OC)c1OC)C2 [duartin, dimethyl ether]
mitoOX (mtOXPHOS transcripts; [5]): −0.571 | MTT [1, 5]: −0.975 | nucOX (nuOXPHOS transcripts; [5]): −1.362 | cyt c (cytochrome c; [5]): −0.531 | GE-HTS (OXPHOS gene expression; [5]): −1.156 | ROS (reactive oxygen species; [5]): 0.796 | ΔΨm [2, 5]: 0.556 | Viability (C2C12 myotubes; [5]): 1.330

CCCCOc1ccc(C(=O)CCN2CCCCC2)cc1 [dyclonine]
mitoOX (mtOXPHOS transcripts; [4]): −1.117 | MTT [1, 4]: −0.882 | nucOX (nuOXPHOS transcripts; [4]): −0.377 | cyt c (cytochrome c): 0.597 | cyt c (cytochrome c; [4]): 1.243 | GE-HTS (OXPHOS gene expression; [4]): −0.690 | ROS (reactive oxygen species; [4]): 0.379 | ΔΨm [2, 4]: −1.085 | Viability (C2C12 myotubes; [4]): −0.640

CC[N+](C)(C)c1cccc(O)c1 [edrophonium]
mitoOX (mtOXPHOS transcripts; [6]): −0.183 | mitoOX (mtOXPHOS transcripts; [7]): −1.083 | MTT [1, 6]: −0.015 | MTT [1, 7]: 0.901 | nucOX (nuOXPHOS transcripts; [6]): −1.001 | nucOX (nuOXPHOS transcripts; [7]): −0.611 | cyt c (cytochrome c; [6]): 1.045 | cyt c (cytochrome c; [7]): 0.177 | GE-HTS (OXPHOS gene expression; [6]): −0.806 | GE-HTS (OXPHOS gene expression; [7]): −0.803 | ROS (reactive oxygen species; [6]): 1.006 | ROS (reactive oxygen species; [7]): 0.343 | ΔΨm [2, 6]: 0.391 | ΔΨm [2, 7]: −0.161 | Viability (C2C12 myotubes; [6]): −0.291 | Viability (C2C12 myotubes; [7]): 0.250

O=C(O)c1cc(O)c2c(c1)C(=O)c1cc(O)cc(O)c1C2=O [emodic acid]
mitoOX (composite Z-score) (mtOXPHOS transcripts; Conc 20 μM): −1.286 | MTT (composite Z-score) ([1]; Conc 20 μM): −0.976 | nucOX (composite Z-score) (nuOXPHOS transcripts; Conc 20 μM): −1.210 | cyt c (composite Z-score) (cytochrome c; Conc 20 μM): 0.505 | GE-HTS (composite Z-score) (OXPHOS gene expression; Conc 20 μM): −1.336 | ROS (composite Z-score) (reactive oxygen species; Conc 20 μM): 1.403 | ΔΨm (composite Z-score) ([2]; Conc 20 μM): −0.966 | Viability (composite Z-score) (C2C12 myotubes; Conc 20 μM): 0.262

O=C(CC[N+](=O)[O-])OC[C@H]1O[C@@H](O)[C@H](OC(=O)CC[N+](=O)[O-])[C@@H](OC(=O)CC[N+](=O)[O-])[C@@H]1OC(=O)CC[N+](=O)[O-] [endecaphyllin X]
mitoOX (mtOXPHOS transcripts; [3]): −0.741 | MTT [1, 3]: −1.007 | nucOX (nuOXPHOS transcripts; [3]): −0.566 | cyt c (cytochrome c; [3]): −0.219 | GE-HTS (OXPHOS gene expression; [3]): −0.660 | ROS (reactive oxygen species; [3]): −0.292 | ΔΨm [2, 3]: 0.142 | Viability (C2C12 myotubes; [3]): 0.158

ClC1=C(Cl)C2(Cl)C3C4CC(C5OC45)C3C1(Cl)C2(Cl)Cl (centres unmarked) [endrin]
mitoOX (mtOXPHOS transcripts; [6]): −0.385 | MTT [1, 6]: −1.710 | nucOX (nuOXPHOS transcripts; [6]): −0.738 | cyt c (cytochrome c; [6]): 0.726 | GE-HTS (OXPHOS gene expression; [6]): −0.680 | ROS (reactive oxygen species; [6]): 0.770 | ΔΨm [2, 6]: 0.129 | Viability (C2C12 myotubes; [6]): 0.522

CCC(C)C(=O)O[C@@H]1C[C@@]2(C)[C@H](c3ccoc3)OC(=O)CC23OC2(C)OC34[C@H](OC(=O)C(C)C)[C@@]3(O)[C@@H](OC(=O)C5(C)OC5C)[C@@]5(C)C[C@]3(O)[C@@](C)([C@H]5CC(=O)OC)C14O2 (some centres unmarked) [entandrophragmin]
mitoOX (mtOXPHOS transcripts; [5]): 1.061 | MTT [1, 5]: −0.737 | nucOX (nuOXPHOS transcripts; [5]): 0.149 | cyt c (cytochrome c; [5]): −0.703 | GE-HTS (OXPHOS gene expression; [5]): 0.467 | ROS (reactive oxygen species; [5]): 1.351 | ΔΨm [2, 5]: 0.113 | Viability (C2C12 myotubes; [5]): 0.672
